Assay results published in patent US20080181877A1, “Method For Monitoring the Effect of Compounds on Foxc2 Expression” (LEANGENE AB, C/O CIT Ekonomiservice AB, priority 2006, published 2008).

Experiments:
Foxc2 expression [1] = assay: High through-put screening: beta-gal activity (Beta-glo kit) in Foxc2nLacZ MEFs differentiated into adipocytes; format: cell-based, mouse
Experimental: Primary MEFs from both wild type and Foxc2nLacZ knock-in mice were maintained in DMEM supplied with 10% FBS and antibiotics. For differentiation into adipocytes the MEFs were grown until confluency and then stimulated (Day 0) with a differentiation media (DMEM, 10% FBS, antibiotics, 1 uM dexamethasone, 0.5 mM isobutyl-methyl-xanthine, 10 ug/mL insulin, 20 ng/ml FGF (all from Sigma), and 1 uM rosiglitazone (Alexis)). New differentiation media was added at day 3. At day 5 the differentiation media was removed and the cells were cultured in a media containing DMEM, 10% FBS, antibiotics, 10 ug/mL insulin, 1 uM rosiglitazone, and 20 ng/ml FGF. This media was changed every second day. From day 10 the cells were kept DMEM supplied with 10% FBS and antibiotics for 24 hours as a wash out period before initiating the experiments.
Foxc2nLacZ MEFs were plated onto gelatine coated 96 well plates. Differentiation was initialized after confluence according to protocol. […] After a wash out period for 24 hours the cells were subjected to different compounds for the indicated time points and subsequently induction of β-gal enzyme activity was measured using the Beta-glo kit (Promega) and a luminometric plate reader. Confluent cells differentiated into adipocytes were detected by increased X-gal staining (FIG. 5a-d), Foxc2nLacZ protein levels increased transiently during the differentiation process. […]

Foxc2 expression [2] = assay: Monitoring Foxc2 expression in MEFs by X-gal staining; format: cell-based, mouse; conditions: acute treatment; MEFs from heterozygous Foxc2nLacZ E13.5 embryos
Experimental: FIG. 4 specifies the expression of Foxc2 during adipocyte differentiation of mouse embryonic fibroblasts (MEFs), which were isolated from Foxc2nLacZ±E13.5 embryos as well as wt littermates as control. The MEFs were treated with adipocyte differentiation mix (0.5 mM IBMX, 0.25 μM Dex and 10 μg/mL insulin) and X-gal stained at different time points after start of differentiation. Expression of Foxc2 increases during the course of adipocyte differentiation as judge by increasing β-galactosidase activity.
MEFs were isolated from E13.5 embryos from Foxc2nLacZ±heterozygous intercrosses and genotyped by PCR on DNA from the tail. The head, limbs and viscera were removed from embryos and the remains were minced with a razor blade and incubated in 0.25% trypsin, 0.1% EDTA for 1 h at 37° C. The cell suspension was plated in DMEM containing 10% fetal calf serum and antibiotics (100 units of penicillin and 100 μg/mL streptomycin). Once the cultures reached confluency, 1×10^6 cells were plated on 10-cm tissue culture plates (Falcon) and considered passage 0.
A cell based high-throughput screening system has been established by isolation of MEFs from heterozygous Foxc2nLacZ±E13.5 embryos as well as from wt embryos as a control.

Row | Compound | beta-gal activity (Foxc2 expression [1]; Foxc2nLacZ MEFs differentiated into adipocytes, 96 well plates, 50 μg per well at 0 h, acute treatment, Beta-glo kit) | levels of reporter gene over time (Foxc2 expression [1]; single dose, gene construct with in frame fusion of Foxc2 with a reporter gene) | Foxc2nLacZ protein levels (X-gal staining) (Foxc2 expression [2])
1 | CCCCCCCCCCCCCC(=O)O[C@@H]1[C@@H](C)[C@@]2(O)[C@@H](C=C(CO)C[C@]3(O)C(=O)C(C)=C[C@@H]23)[C@@H]2C(C)(C)[C@]12OC(C)=O [TPA, 12-O-tetradecanoylphorbol-13-acetate] | increase in beta-gal activity | moderate increasing of the levels of reporter gene remaining for long periods at similar levels | 
2 | insulin: Insulin, known to be an inducer of Foxc2, may be utilized as a control |  |  | levels could be induced
3 | TNFα |  |  | levels could be induced
